Experimental data from PMC9122903, “First purified recombinant CYP75B including transmembrane helix with unexpected high substrate specificity to (2R)-naringenin” (Scientific Reports, 2022).
One block for each compound: values may come before it.

Key:
Experiment in all cases: hydroxylation, product quantified by HPLC-DAD ([…] nm)
Type in all cases: biochemical, Dahlia pinnata
Settings in all cases: 1.55 mM NADPH, CrCPR microsomes, pH 7.5, 30 °C
[1] = system: T1, DvCH3H (chalcone 3-hydroxylase)
T1 construct: gene CH3H; assayed with yeast microsomes containing recombinant Catharanthus roseus CPR (GenBank X69791.1); with NADPH--cytochrome P450 reductase (Catharanthus roseus)

[2] = system: T1, DvCH3H (chalcone 3-hydroxylase); remark: listed apart in the source
[3] = system: T1, DvCH3H (chalcone 3-hydroxylase); remark: listed apart in the source

SMILES: O=c1cc(-c2ccc(O)cc2)oc2cc(O)cc(O)c12 [Apigenin]
Km [1]: 329 ± 7 nM

SMILES: O=C1C[C@@H](c2ccc(O)cc2)Oc2cc(O)cc(O)c21 [(2S)-Naringenin]
Km [2]: 760 ± 94 nM

SMILES: O=C1C[C@H](c2ccc(O)cc2)Oc2cc(O)cc(O)c21 [(2R)-Naringenin]
Km [2]: 408 ± 15 nM

Second part, the compound after the results:

Km ([2]; racemic mixture): 402 ± 46 nM
SMILES: O=C1CC(c2ccc(O)cc2)Oc2cc(O)cc(O)c21 (racemic) [Racemic Naringenin]

Km [3]: 622 ± 69 nM
SMILES: O=c1c(O)c(-c2ccc(O)cc2)oc2cc(O)cc(O)c12 [Kaempferol]
